What was measured:
5-HT transporter = biological target: T1, 5-HT transporter (Homo sapiens, UniProt P31645); experiment: Serotonergic transporter binding ([3H]imipramine); conditions: [3H]imipramine 2 nM, HEK-293 recombinant, read-out: percentage inhibition at 10 μM of control specific binding to the serotonergic transporter
T1 construct: expressed in transfected cells; host or cells: HEK-293
Protocol: The serotonergic 5-HT transporter was isolated from human recombinant HEK-293 cells according to the method described by Tatsumi et al. (1997), Pharmacological profile of antidepressants and related compounds at human monoamine transporters, Eur. J. Pharmacol., 340: 249-258.
Serotonergic transporter binding was determined by a radioligand method using tritium-labelled imipramine (2 nM) as substrate (Tatsumi et al., 1999). Ligand radioactivity was determined by liquid scintillation counting. Ligand incubations were carried out for thirty minutes at 22° C. The experiment was conducted in duplicate.
The specific ligand binding to the serotonergic transporter was defined as the difference between the total binding and the non specific binding determined in presence of an excess of unlabelled ligand. The results obtained are presented in Table 3 hereinbelow and are expressed as percent of control specific binding and as a percent inhibition of control specific binding obtained in presence of 10 μM of substance.

PDE5 = biological target: T2, PDE5 (Bos taurus, UniProt Q28156); experiment: Selectivity: inhibition of PDE5 (radioenzymatic assay); format: biochemical, bovine; conditions: Table 2
T2 construct: PDE3, PDE4 and PDE5 from vascular smooth muscle; from tissue; host or cells: bovine aortic media (vascular smooth muscle), DEAE-Sephacel fraction
Protocol: 2.1.1. Isolation of Phosphodiesterases from Smooth Muscle A 3 g segment of bovine aortic media cut into pieces with scissors was homogenized with an ultra-turrax then a potter glass/glass homogenizer in 7 volumes by weight of buffer A containing a protease inhibitor cocktail (20 mM Tris-HCl, 0.25 M saccharose, 2 mM magnesium acetate, 1 mM dithiothreitol, 5 mM EGTA, 2000 U/ml aprotinin, 10 mg/l leupeptin and 10 mg/l soya trypsic inhibitor). The homogenizate was centrifuged at 105,000 g for 1 hour. The supernatant was loaded on a DEAE-Sephacel column (15×1.6 cm) pre-equilibrated with buffer B (buffer A without the saccharose, EGTA and protease inhibitors). The column was washed until there was no detectable absorption at 280 nm, then eluted with a linear gradient of NaCl (0-0.5 M) in buffer B. 3-ml fractions were collected and enzyme activity was determined under the conditions described hereinbelow to localize the different enzymes PDE1, PDE3, PDE4 and PDE5 which were aliquoted and frozen at −80° C. (Lugnier et al., Biochem. Phamacol., 1986, 35: 1746-1751). […]
Cyclic nucleotide phosphodiesterase activity was determined by a radioenzymatic method using tritium-labelled cyclic GMP or AMP (1 μM) as substrate (Lugnier et al., 1986). ^3H-labelled adenosine or guanosine monophosphate formed by hydrolysis of the radiolabelled cyclic nucleotide was then converted to ^3H-labelled adenosine or guanosine in a second reaction with one nucleotidase in excess. […] Nucleoside radioactivity was determined by liquid scintillation counting. […]
The activity of the compounds was evaluated on other phosphodiesterase isoforms, particularly basal state or calmodulin-activated PDE1 from vascular smooth muscle, PDE3, PDE4 and PDE5 from vascular smooth muscle. The results obtained are presented in Tables 1 and 2 hereinbelow and are expressed as the percentage inhibition of enzymatic activity produced by […] of the test compound.

σ receptors = experiment: Isolated organ bioassay, field-stimulated vas deferens: test for antagonist activity; set-up: species or system guinea pig; conditions: mean, n=2
Protocol: Segments of guinea pig vas deferens were suspended in 20-ml organ baths containing an oxygenated (95% O2 and 5% CO2) and pre-warmed (37° C.) physiological salt solution of the following composition (in mM): NaCl 118.0, KCl 4.7, MgSO4 1.2, CaCl2 2.5, KH2PO4 1.2, NaHCO3 25.0 and glucose 11.0 (pH 7.4). Yohimbine (1 μM), (−) sulpiride (1 μM), atropine (1 μM) and naloxone (1 μM) were also present throughout the experiments to block the α2-adrenergic, dopamine D2, muscarinic and opioid receptors, respectively. The tissues were connected to force transducers for isometric tension recordings. They were stretched to a resting tension of 0.5 g, allowed to equilibrate for at least 30 min during which time they were washed repeatedly and the tension readjusted. Thereafter, they were stimulated electrically using a constant current stimulator.
The tissues were exposed to a submaximal concentration of the reference agonist (+) SKF-10047 (100 μM) to obtain a control response. After stabilization of the (+) SKF-10047-induced response, increasing concentrations of substance or the reference antagonist rimcazole were added cumulatively. Each concentration was left in contact with the tissues until a stable response was obtained or for a maximum of 15 min. If it occurred, an inhibition of the (+) SKF-10047-induced increase in twitch contraction amplitude by substance indicated an antagonist activity at the σ receptors.
The parameter measured was the maximum change in the twitch contraction amplitude induced by each compound concentration. The results are expressed as a percent variation of the control twitch contraction amplitude (mean values). The effects of substance tested at 1.0 10^−6 M, 3.0 10^−6 M and 1.0 10^−5 M for agonist and antagonist activities at the σ receptors in the guinea pig vas deferens bioassay are summarized in Tables 6-7 where those of the reference compounds are also reported.

[1] = tested on: σ (non-selective) receptors; experiment: Sigma receptors binding, non-selective ([3H]DTG); conditions: [3H]DTG 8 nM, rat cerebral cortex
Protocol: The sigma receptors were isolated from rat cerebral cortex according to the method described in Shirayama et al., 1993, p-Chlorophenylalanine-reversible reduction of s binding sites by chronic imipramine treatment in rat brain, Eur. J. Pharmacol., 237: 117-126.
Sigma 1 receptor binding was determined by a radioligand method using tritium-labelled DTG (8 nM) as substrate (Shirayama et al., 1993). Ligand radioactivity was determined by liquid scintillation counting. For sigma binding evaluation, ligand incubations were carried out for one hundred twenty minutes at 22° C. The experiments were conducted in duplicate.
The specific ligand binding to the sigma receptors was defined as the difference between the total binding and the non specific binding determined in presence of an excess of unlabelled ligand. […]

T1 sequence (P31645 whole entry): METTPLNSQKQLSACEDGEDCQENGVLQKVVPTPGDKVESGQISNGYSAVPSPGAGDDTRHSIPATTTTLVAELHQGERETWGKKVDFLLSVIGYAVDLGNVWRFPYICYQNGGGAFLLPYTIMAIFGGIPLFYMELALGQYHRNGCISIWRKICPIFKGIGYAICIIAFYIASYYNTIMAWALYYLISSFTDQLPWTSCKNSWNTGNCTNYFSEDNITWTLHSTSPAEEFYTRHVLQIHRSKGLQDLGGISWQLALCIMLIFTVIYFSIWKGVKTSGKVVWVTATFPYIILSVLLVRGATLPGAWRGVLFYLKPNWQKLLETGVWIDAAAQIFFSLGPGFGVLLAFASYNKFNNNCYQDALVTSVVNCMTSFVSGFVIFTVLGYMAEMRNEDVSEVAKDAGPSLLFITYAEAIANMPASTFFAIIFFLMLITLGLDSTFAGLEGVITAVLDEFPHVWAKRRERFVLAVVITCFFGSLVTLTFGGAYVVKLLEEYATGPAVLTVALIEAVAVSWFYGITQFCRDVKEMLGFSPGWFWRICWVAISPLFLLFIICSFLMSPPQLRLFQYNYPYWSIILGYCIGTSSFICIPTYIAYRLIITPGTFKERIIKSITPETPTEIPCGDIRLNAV

SMILES: COc1cc2c(c(OC)c1-c1ccccc1)C(c1cccc(C(N)=O)c1)=NCC(=O)N2C [Compound 17, 3-(6,8-Dimethoxy-1-methyl-2-oxo-7-phenyl-2,3-dihydro-1H-benzo[e][1,4]diazepin-5-yl)-benzamide]
- inhibition at 10 µM (5-HT transporter): 98%
- inhibition at 10 µM (PDE5; 10 μM compound, read-out: PDE5 percentage inhibition at 10 μM): 22%
- IC50 (PDE5; value in square brackets): 42 µM
- Response to (+)SKF-10,047 (1.0 10^−4 M) in the presence of the compound (σ receptors; compound 1.0 10^−5 M): +169%
- Response to (+)SKF-10,047 (1.0 10^−4 M) in the presence of the compound (σ receptors; compound 1.0 10^−6 M): +139%
- Response to (+)SKF-10,047 (1.0 10^−4 M) in the presence of the compound (σ receptors; compound 3.0 10^−6 M): +139%
- σ (non-selective) percentage inhibition at 0.1 μM ([1]; 0.1 μM): 1%
- σ (non-selective) percentage inhibition at 1 μM ([1]; 1 μM): 57%
- σ (non-selective) percentage inhibition at 10 μM ([1]; 10 μM): 100%

From patent publication US20090215752A1, “Compounds, preparation and therapeutic use thereof” (priority 2005, published 2009)
